Assay results taken from patent US8652997B2, “Active compound combinations” (Bayer CropScience AG, priority 2009, dated 2014).
Where two headings read alike, the source gives them in different places.

Experiments:
Format in all cases: in vivo
[1] = system: two spotted spidermites (Tetranychus urticae); assay: Tetranychus urticae test (sprayed French bean leaves)
Protocol: (§1) Solvent: 7 parts by weight of dimethylformamide
(§2) Emulsifier: 2 parts by weight of alkylaryl polyglycolether
(§3) To produce a suitable preparation of active compound, 1 part by weight of active compound is mixed with the stated amount of solvent and emulsifier, and the concentrate is diluted with emulsifier-containing water to the desired concentration.
French bean leaves (Phaseolus vulgaris) which are heavily infested with all stages of the two spotted spidermites (Tetranychus urticae) are treated by being sprayed into the preparation of the active compound of the desired concentration.
After the specified period of time, the mortality in % is determined. 100% means that all the spider mites have been killed; 0% means that none of the spider mites have been killed.

[2] = system: larvae of the diamondback moth (Plutella xylostella); assay: Plutella xylostella test (sprayed cabbage leaves)
Protocol: as §1, §2, §3
Cabbage leaves (Brassica oleracea) are treated by being sprayed into the preparation of the active compound of the desired concentration and are infested with larvae of the diamondback moth (Plutella xylostella) as long as the leaves are still moist.
After the specified period of time, the mortality in % is determined. 100% means that all the caterpillars have been killed; 0% means that none of the caterpillars have been killed.

Septoria tritici = assay: Septoria tritici-test (wheat)/preventive; settings: preventive spray, evaluated 21 days after inoculation
Protocol: Septoria tritici-Test (Wheat)/Preventive
(§4) Solvent: 49 parts by weight of n,n-dimethylacetamid
(§5) Emulsifier: 1 part by weight of alkylaryl polyglycol ether
(§6) To produce a suitable preparation of active compound, 1 part by weight of active compound or active compound combination is mixed with the stated amounts of solvent and emulsifier, and the concentrate is diluted with water to the desired concentration.
(§7) To test for preventive activity, young plants are sprayed with the preparation of active compound or active compound combination at the stated rate of application.
After the spray coating has been dried, the plants are sprayed with a spore suspension of Septoria tritici. The plants remain for 48 hours in an incubation cabinet at approximately 20° C. and a relative atmospheric humidity of approximately 100% and afterwards for 60 hours at approximately 15° C. in a translucent incubation cabinet at a relative atmospheric humidity of approximately 100%.
The plants are placed in the greenhouse at a temperature of approximately 15° C. and a relative atmospheric humidity of approximately 80%.
The test is evaluated 21 days after the inoculation. 0% means an efficacy which corresponds to that of the control, while an efficacy of 100% means that no disease is observed.

[3] = system: Fusarium nivale (var. majus); assay: Fusarium nivale (var. majus)-test (wheat)/preventive; settings: preventive spray, evaluated 5 days after inoculation
Protocol: Fusarium nivale (Var. majus)-Test (Wheat)/Preventive
as §4, §5, §6, §7
After the spray coating has been dried, the plants are slightly injured by using a sandblast and afterwards they are sprayed with a conidia suspension of Fusarium nivale (var. majus).
The plants are placed in the greenhouse under a translucent incubation cabinet at a temperature of approximately 10° C. and a relative atmospheric humidity of approximately 100%.
The test is evaluated 5 days after the inoculation. 0% means an efficacy which corresponds to that of the control, while an efficacy of 100% means that no disease is observed.

[4] = 48 h, after 2 d, read-out: Mortality in % after 2d
[5] = 96 h, after 4 d, read-out: Mortality in % after 4d
[6] = 48 h, read-out: Mortality in % after 2d
[7] = 96 h, read-out: Mortality in % after 4d

N#Cc1ccccc1NC(=O)c1snc(Cl)c1Cl [Isotianil, 3,4-dichloro-N-(2-cyanophenyl)-5-isothiazolecarboxamide]
mortality at 200 ppm [1, 4]: 0% | mortality at 200 ppm [1, 5]: 0% | mortality at 200 ppm [2, 4]: 5% | mortality at 200 ppm [2, 5]: 5% | Efficacy in % found (Septoria tritici; 500 g/ha): 33% | Efficacy in % found (Septoria tritici; 1000 g/ha): 33% | Efficacy in % found ([3]; 1000 g/ha): 25%

CCC(C)(C)C(=O)OC1=C(c2ccc(Cl)cc2Cl)C(=O)OC12CCCCC2 [Spirodiclofen, spirodiclofen]
mortality at 20 ppm [1, 6]: 30% | mortality at 20 ppm [2, 7]: 15% | Efficacy in % found (Septoria tritici; 250 g/ha): 22% | Efficacy in % found ([3]; 250 g/ha): 13%

CCOC(=O)OC1=C(c2cc(C)ccc2C)C(=O)N[C@]12CC[C@@H](OC)CC2 [Spirotetramat, spirotetramat]
mortality at 20 ppm [1, 7]: 55% | mortality at 20 ppm [2, 6]: 20% | Efficacy in % found (Septoria tritici; 250 g/ha): 22%

O=[N+]([O-])/N=C1\NCCN1Cc1ccc(Cl)nc1 [Imidacloprid, imidacloprid]
mortality at 20 ppm [2, 6]: 0% | mortality at 100 ppm [2, 6]: 20% | Efficacy in % found (Septoria tritici; 500 g/ha): 22% | Efficacy in % found (Septoria tritici; 1000 g/ha): 22%

Cc1cc(C)c(C2=C(OC(=O)CC(C)(C)C)C3(CCCC3)OC2=O)c(C)c1 [Spiromesifen, spiromesifen]
mortality at 100 ppm [1, 7]: 75% | mortality at 500 ppm [2, 7]: 25% | Efficacy in % found ([3]; 250 g/ha): 38%
